Test results published in patent publication US9006250B2, “4-amino-6-(heterocyclic)picolinates and 6-amino-2-(heterocyclic)pyrimidine-4-carboxylates and their use as herbicides” (Dow AgroSciences, LLC, priority 2013, dated 2015).

Key:
[1] = tested on: ORYSA: rice (Oryza sativa); experiment: Post-Emergent Test II herbicidal activity; format: in vivo; conditions: post-emergence, 336 h, 14 days, read-out: Visual Growth Reduction (%) 14 Days After Application ORYSA
Experimental: (§1) Post-Emergent Test II: Seeds or nutlets of the desired test plant species were planted in Sun Gro Metro-Mix® 360 planting mixture, which typically has a pH of 6.0 to 6.8 and an organic matter content of about 30 percent, in plastic pots with a surface area of 64 square centimeters. When required to ensure good germination and healthy plants, a fungicide treatment and/or other chemical or physical treatment was applied. The plants were grown for 7-21 d in a greenhouse with an approximate 15 h photoperiod which was maintained at about 23-29° C. during the day and 22-28° C. during the night. Nutrients and water were added on a regular basis and supplemental lighting was provided with overhead metal halide 1000-Watt lamps as necessary. The plants were employed for testing when they reached the first or second true leaf stage.
(§2) A weighed amount, determined by the highest rate to be tested, of each test compound was placed in a 25 mL glass vial and was dissolved in 4 mL of a 97:3 v/v mixture of acetone and DMSO to obtain concentrated stock solutions. […] The concentrated stock solutions obtained were diluted with 20 mL of an aqueous mixture containing acetone, water, isopropyl alcohol, DMSO, Atplus 411F crop oil concentrate, and Triton® X-155 surfactant in a 48.5:39:10:1.5:1.0:0.02 v/v ratio to obtain spray solutions containing the highest application rates. Additional application rates were obtained by serial dilution of 12 mL of the high rate solution into a solution containing 2 mL of 97:3 v/v mixture of acetone and DMSO and 10 mL of an aqueous mixture containing acetone, water, isopropyl alcohol, DMSO, Atplus 411F crop oil concentrate, and Triton X®-155 surfactant in a 48.5:39:10:1.5:1.0:0.02 v/v ratio to obtain ½×, ¼×, ⅛× and 1/16× rates of the high rate. Compound requirements are based upon a 12 mL application volume at a rate of 187 liters per hectare (L/ha). Formulated compounds were applied to the plant material with an overhead Mandel track sprayer equipped with 8002E nozzles calibrated to deliver 187 L/ha over an application area of 0.503 square meters at a spray height of 18 inches […] above the average plant canopy height. Control plants were sprayed in the same manner with the solvent blank.
(§3) The treated plants and control plants were placed in a greenhouse as described above and watered by subirrigation to prevent wash-off of the test compounds. After 14 d, the condition of the test plants as compared with that of the untreated plants was determined visually and scored on a scale of 0 to 100 percent where 0 corresponds to no injury and 100 corresponds to complete kill.

[2] = tested on: AMARE: redroot pigweed (Amaranthus retroflexus); experiment: Post-Emergent Test II herbicidal activity; format: in vivo; conditions: post-emergence, 336 h, 14 days, read-out: Visual Growth Reduction (%) 14 Days After Application AMARE
Experimental: as §1, §2, §3

[3] = tested on: EPHHL: wild poinsettia (Euphorbia heterophylla); experiment: Post-Emergent Test II herbicidal activity; format: in vivo; conditions: post-emergence, 336 h, 14 days, read-out: Visual Growth Reduction (%) 14 Days After Application EPHHL
Experimental: as §1, §2, §3

[4] = tested on: CYPES: yellow nutsedge (Cyperus esculentus); experiment: Post-Emergent Test II herbicidal activity; format: in vivo; conditions: post-emergence, 336 h, 14 days, read-out: Visual Growth Reduction (%) 14 Days After Application CYPES
Experimental: as §1, §2, §3

[5] = tested on: ECHCG: barnyardgrass (Echinochloa crus-galli); experiment: Post-Emergent Test II herbicidal activity; format: in vivo; conditions: post-emergence, 336 h, 14 days, read-out: Visual Growth Reduction (%) 14 Days After Application ECHCG
Experimental: as §1, §2, §3

[6] = tested on: HELAN: sunflower (Helianthus annuus); experiment: Post-Emergent Test II herbicidal activity; format: in vivo; conditions: post-emergence, 336 h, 14 days, read-out: Visual Growth Reduction (%) 14 Days After Application HELAN
Experimental: as §1, §2, §3

[7] = tested on: BRSNN: oilseed rape, canola (Brassica napus); experiment: Post-Emergent Test II herbicidal activity; format: in vivo; conditions: post-emergence, 336 h, 14 days, read-out: Visual Growth Reduction (%) 14 Days After Application BRSNN
Experimental: as §1, §2, §3

[8] = tested on: TRZAS: wheat, spring (Triticum aestivum); experiment: Post-Emergent Test II herbicidal activity; format: in vivo; conditions: post-emergence, 336 h, 14 days, read-out: Visual Growth Reduction (%) 14 Days After Application TRZAS
Experimental: as §1, §2, §3

[9] = tested on: ABUTH: velvetleaf (Abutilon theophrasti); experiment: Post-Emergent Test II herbicidal activity; format: in vivo; conditions: post-emergence, 336 h, 14 days, read-out: Visual Growth Reduction (%) 14 Days After Application ABUTH
Experimental: as §1, §2, §3

[10] = tested on: ZEAMX: maize, corn (Zea mays); experiment: Post-Emergent Test II herbicidal activity; format: in vivo; conditions: post-emergence, 336 h, 14 days, read-out: Visual Growth Reduction (%) 14 Days After Application ZEAMX
Experimental: as §1, §2, §3

[11] = tested on: CHEAL: lambsquarters (Chenopodium album); experiment: Post-Emergent Test II herbicidal activity; format: in vivo; conditions: post-emergence, 336 h, 14 days, read-out: Visual Growth Reduction (%) 14 Days After Application CHEAL
Experimental: as §1, §2, §3

melting point: 180 to 182 °C
SMILES: COC(=O)c1nc(-c2ccc3nonc3c2)c(F)c(N)c1Cl [Compound 1, Methyl 4-amino-6-(benzo[c][1,2,5]oxadiazol-5-yl)-3-chloro-5-fluoropicolinate]
pest or weed control at 35 g/ha ([1]; 35 g ai/ha): 0 to 29%
pest or weed control at 70 g/ha ([1]; 70 g ai/ha): 0 to 29%
pest or weed control at 140 g/ha ([1]; 140 g ai/ha): 0 to 29%
pest or weed control at 35 g/ha ([2]; 35 g ai/ha): 75 to 84%
pest or weed control at 70 g/ha ([2]; 70 g ai/ha): 75 to 84%
pest or weed control at 140 g/ha ([2]; 140 g ai/ha): 95 to 100%
pest or weed control at 35 g/ha ([3]; 35 g ai/ha): 60 to 74%
pest or weed control at 70 g/ha ([3]; 70 g ai/ha): 60 to 74%
pest or weed control at 140 g/ha ([3]; 140 g ai/ha): 60 to 74%
pest or weed control at 35 g/ha ([4]; 35 g ai/ha): 0 to 29%
pest or weed control at 70 g/ha ([4]; 70 g ai/ha): 0 to 29%
pest or weed control at 140 g/ha ([4]; 140 g ai/ha): 95 to 100%
pest or weed control at 35 g/ha ([5]; 35 g ai/ha): 75 to 84%
pest or weed control at 70 g/ha ([5]; 70 g ai/ha): 75 to 84%
pest or weed control at 35 g/ha ([6]; 35 g ai/ha): 85 to 94%
pest or weed control at 70 g/ha ([6]; 70 g ai/ha): 95 to 100%
pest or weed control at 140 g/ha ([6]; 140 g ai/ha): 95 to 100%
pest or weed control at 35 g/ha ([7]; 35 g ai/ha): 60 to 74%
pest or weed control at 70 g/ha ([7]; 70 g ai/ha): 60 to 74%
pest or weed control at 140 g/ha ([7]; 140 g ai/ha): 60 to 74%
pest or weed control at 35 g/ha ([8]; 35 g ai/ha): 45 to 59%
pest or weed control at 70 g/ha ([8]; 70 g ai/ha): 45 to 59%
pest or weed control at 140 g/ha ([8]; 140 g ai/ha): 60 to 74%
pest or weed control at 35 g/ha ([9]; 35 g ai/ha): 85 to 94%
pest or weed control at 70 g/ha ([9]; 70 g ai/ha): 85 to 94%
pest or weed control at 140 g/ha ([9]; 140 g ai/ha): 95 to 100%
pest or weed control at 35 g/ha ([10]; 35 g ai/ha): 60 to 74%
pest or weed control at 70 g/ha ([10]; 70 g ai/ha): 60 to 74%
pest or weed control at 140 g/ha ([10]; 140 g ai/ha): 60 to 74%
pest or weed control at 35 g/ha ([11]; 35 g ai/ha): 95 to 100%
pest or weed control at 70 g/ha ([11]; 70 g ai/ha): 95 to 100%
pest or weed control at 140 g/ha ([11]; 140 g ai/ha): 95 to 100%
